This is an account of results in ChEMBL document CHEMBL3600310 (J Med Chem, 2015).

By IC50 is commonly meant the midpoint of a concentration-inhibition curve.

Data set [1] deals with T1, DNA topoisomerase 1 (Homo sapiens) (UniProt P11387).
T1 sequence (whole entry): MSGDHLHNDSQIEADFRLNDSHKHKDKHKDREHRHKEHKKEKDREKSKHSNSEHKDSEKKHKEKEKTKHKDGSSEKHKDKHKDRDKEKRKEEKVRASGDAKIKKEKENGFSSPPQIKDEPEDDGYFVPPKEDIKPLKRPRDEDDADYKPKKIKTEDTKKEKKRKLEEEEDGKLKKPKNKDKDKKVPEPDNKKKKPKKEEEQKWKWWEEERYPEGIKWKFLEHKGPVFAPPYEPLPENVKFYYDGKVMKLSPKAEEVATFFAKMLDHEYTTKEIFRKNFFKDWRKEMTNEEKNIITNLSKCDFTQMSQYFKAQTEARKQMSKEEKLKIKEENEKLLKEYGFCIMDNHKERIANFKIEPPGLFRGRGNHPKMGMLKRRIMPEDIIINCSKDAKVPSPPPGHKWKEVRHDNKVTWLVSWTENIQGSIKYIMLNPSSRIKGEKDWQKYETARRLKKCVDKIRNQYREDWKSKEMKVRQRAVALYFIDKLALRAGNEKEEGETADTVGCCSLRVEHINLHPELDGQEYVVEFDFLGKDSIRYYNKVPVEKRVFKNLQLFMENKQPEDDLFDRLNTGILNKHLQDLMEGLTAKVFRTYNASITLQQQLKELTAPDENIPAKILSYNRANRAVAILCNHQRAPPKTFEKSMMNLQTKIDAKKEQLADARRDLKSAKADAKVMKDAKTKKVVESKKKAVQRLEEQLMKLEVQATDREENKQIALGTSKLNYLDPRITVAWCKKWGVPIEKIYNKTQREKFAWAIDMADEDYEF
Description: Inhibition of Top1 (unknown origin)-mediated pBR322 DNA cleavage using ethidium bromide staining at 200 uM after 15 mins by electrophoresis analysis.

Data set [2] addresses DNA topoisomerase 2-alpha (Homo sapiens) (UniProt P11388). The experiment in a line: Inhibition of Top2alpha (unknown origin)-mediated pBR322 DNA cleavage using ethidium bromide staining at 100 uM after 30 mins by electrophoresis analysis.
In data set [3] the test system is A549. Description: Cytotoxicity against human A549 cells after 72 hrs by MTT assay. Type of data set: functional, cell-based. As to conditions: A549, 72 h. In general terms: Formazan colour is commonly taken as a measure of viable cells.
In data set [4] the test system is HCT-116. Description: Cytotoxicity against human HCT116 cells after 72 hrs by MTT assay. Type of data set: functional, cell-based. As to conditions: HCT-116, 72 h.
The test system of a further data set is MDA-MB-435. Description: Cytotoxicity against human MDA-MB-435 cells after 72 hrs by MTT assay. Conditions: MDA-MB-435, 72 h. Type of data set: functional, cell-based.
Data set [5] concerns the target T1, DNA topoisomerase 1 (Homo sapiens). Description: Inhibition of Top1 (unknown origin)-mediated pBR322 DNA cleavage using ethidium bromide staining at 100 uM after 15 mins by electrophoresis analysis.
Data set [6] shares this target. The experiment in a line: Inhibition of Top1 (unknown origin)-mediated pBR322 DNA cleavage using ethidium bromide staining at 50 uM after 15 mins by electrophoresis analysis.
The test system of another data set is NCI-H446. Description: Cytotoxicity against human NCI-H446 cells after 72 hrs by MTT assay. Format: functional, cell-based. Conditions: NCI-H446, 72 h.
Data set [7] can be described thus: Cytotoxicity against human SW579 cells after 72 hrs by MTT assay. Format: functional, cell-based. As to conditions: SW579, 72 h.
The nature of data set [8]: Cytotoxicity against human SKHEP1 cells after 72 hrs by MTT assay. Type of data set: functional, cell-based. Conditions: SK-HEP1, 72 h.
Data set [9] in a line: Cytotoxicity against human MV-3 cells after 72 hrs by MTT assay. Format: functional, cell-based. Conditions: MV-3, 72 h.
A further data set deals with K562. Description: Cytotoxicity against human K562 cells after 72 hrs by MTT assay. Conditions: K562, 72 h. Format: functional, cell-based.
A short description of data set [10]: Cytotoxicity against human Bel7404 cells after 72 hrs by MTT assay. Format: functional, cell-based. As to conditions: BEL-7404, 72 h.
The next data set has as its system PC-3. The experiment in a line: cells. Conditions: Homo sapiens, PC-3, 72 h.
The next data set has as its target Tubulin. The experiment in a line: Inhibition of brain tubulin (unknown origin) polymerization measured up to 15 to 30 mins. Also noted: species or system Homo sapiens.
Data set [11] deals with HCT-116. Description: Antitumor activity against human HCT116 cells xenografted in BALB/C mouse assessed as tumor growth inhibition at 2 mg/kg, ip for 5 days. Type of data set: functional, organism-based. Background: Xenograft models place foreign cells or tissue in a host animal.
Data set [12] relates to A549. The experiment in a line: Antitumor activity against human A549 cells xenografted in BALB/C mouse assessed as tumor growth inhibition at 2 mg/kg, ip for 5 days. Type of data set: functional, organism-based.
Data set [13] deals with Mus musculus. The experiment in a line: Toxicity in human A549 cells xenografted BALB/C mouse assessed as mortality at 2 mg/kg, ip for 5 days. Type of data set: organism-based. Conditions: in vivo, 120 h.
The subject of data set [14] is Mus musculus. The experiment in a line: Toxicity in human A549 cells xenografted BALB/C mouse assessed as change in body weight at 2 mg/kg, ip for 5 days. Type of data set: organism-based. Conditions: in vivo, 120 h.

Calls of active or inactive are those of the source. The calls are words filed in the database; no cut-off is given here.

Sequence of DNA topoisomerase 2-alpha (Homo sapiens) (P11388 whole entry): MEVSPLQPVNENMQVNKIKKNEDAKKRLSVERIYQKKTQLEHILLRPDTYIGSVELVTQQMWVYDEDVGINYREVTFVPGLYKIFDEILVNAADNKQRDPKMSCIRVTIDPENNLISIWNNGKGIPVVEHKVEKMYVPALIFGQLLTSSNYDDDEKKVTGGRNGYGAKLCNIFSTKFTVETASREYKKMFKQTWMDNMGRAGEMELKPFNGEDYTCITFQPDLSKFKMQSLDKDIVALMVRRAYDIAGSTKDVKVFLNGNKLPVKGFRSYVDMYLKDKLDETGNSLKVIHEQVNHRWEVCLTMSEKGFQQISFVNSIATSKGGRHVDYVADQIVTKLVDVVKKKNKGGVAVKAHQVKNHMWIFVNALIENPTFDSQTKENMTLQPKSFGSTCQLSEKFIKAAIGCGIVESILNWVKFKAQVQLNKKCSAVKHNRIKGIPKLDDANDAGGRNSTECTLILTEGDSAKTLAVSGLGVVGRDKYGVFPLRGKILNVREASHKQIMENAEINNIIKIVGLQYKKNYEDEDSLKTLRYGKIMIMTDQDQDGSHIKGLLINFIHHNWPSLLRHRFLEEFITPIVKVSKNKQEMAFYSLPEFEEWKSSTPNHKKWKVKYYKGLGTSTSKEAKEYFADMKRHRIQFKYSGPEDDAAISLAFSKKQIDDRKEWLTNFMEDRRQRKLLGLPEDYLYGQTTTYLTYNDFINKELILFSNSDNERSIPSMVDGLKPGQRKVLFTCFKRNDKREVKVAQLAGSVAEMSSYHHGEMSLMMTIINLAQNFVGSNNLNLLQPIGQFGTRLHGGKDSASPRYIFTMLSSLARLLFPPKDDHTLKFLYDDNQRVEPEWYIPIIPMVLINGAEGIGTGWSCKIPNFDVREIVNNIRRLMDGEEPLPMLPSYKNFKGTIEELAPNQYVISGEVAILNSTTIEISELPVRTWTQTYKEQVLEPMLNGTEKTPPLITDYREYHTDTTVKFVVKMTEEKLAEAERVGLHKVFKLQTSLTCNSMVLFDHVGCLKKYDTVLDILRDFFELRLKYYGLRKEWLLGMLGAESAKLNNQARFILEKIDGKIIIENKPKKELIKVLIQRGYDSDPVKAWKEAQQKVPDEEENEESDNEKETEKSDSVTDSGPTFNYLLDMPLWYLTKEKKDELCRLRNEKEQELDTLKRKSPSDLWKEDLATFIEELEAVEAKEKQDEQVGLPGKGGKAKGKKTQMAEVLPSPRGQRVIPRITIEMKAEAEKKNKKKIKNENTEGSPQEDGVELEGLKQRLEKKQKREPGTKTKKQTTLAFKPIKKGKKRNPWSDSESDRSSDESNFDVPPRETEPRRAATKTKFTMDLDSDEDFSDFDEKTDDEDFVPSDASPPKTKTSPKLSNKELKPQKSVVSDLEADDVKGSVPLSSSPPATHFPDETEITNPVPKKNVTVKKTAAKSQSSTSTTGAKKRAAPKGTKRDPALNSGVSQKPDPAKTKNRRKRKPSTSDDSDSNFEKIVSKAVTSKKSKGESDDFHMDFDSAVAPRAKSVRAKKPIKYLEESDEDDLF
Description for PC-3: Cytotoxicity against human PC3 cells after 72 hrs by MTT assay

As to `Nc1ccc2c(c1)C(=O)N1CCc3c([nH]c4ccc(O)cc34)C1O2` (centres undefined), the inhibition entry in data set [1] was “Active”. Further, in data set [2], the inhibition result is “inactive”. In addition, the IC50 in the data set on A549 [3] was 29100 nM; in the data set with HCT-116 [4], 500 nM; in the data set with MDA-MB-435, 600 nM.
In the case of `COc1ccc2c(c1)C(=O)N1CCc3c([nH]c4ccc(O)cc34)C1S2` (centres undefined), the inhibition result in [1], in data set [5] and in data set [6] was “Active” each time. Besides, the inhibition result in [2] was “inactive”. Besides, the IC50 with A549 [3] was 300 nM; in the data set with HCT-116 [4], < 3 nM; in the data set with MDA-MB-435, < 3 nM; with NCI-H446 it was > 200000 nM; in [7], 7300 nM; in data set [8], 2200 nM. Besides, the 50% inhibitory concentration (IC50) is 1200 nM in data set [9], < 3 nM in the data set with K562, < 3 nM in data set [10] and 430 nM in the data set with PC-3.
As for `CCC1=C[C@@H]2CN(C1)Cc1c([nH]c3ccccc13)[C@@](C(=O)OC)(c1cc3c(cc1OC)N(C)[C@H]1[C@@](O)(C(=O)OC)[C@H](OC(C)=O)[C@]4(CC)C=CCN5CC[C@]31[C@@H]54)C2` [VINORELBINE], inhibition against Tubulin was half-maximal at 2000 nM (IC50).
As for `O=C1c2cc(O)ccc2SC2c3[nH]c4ccc(O)cc4c3CCN12` (centres undefined), the inhibition entry in data set [1], in data set [5], in [6] and in data set [2] was “Active” in each case. Besides, the “growth inhibition (GI)” value with HCT-116 [11] is “Active”. The IC50 with A549 [3] is 700 nM; in the data set on HCT-116 [4], < 3 nM; in the data set on MDA-MB-435, < 3 nM; with NCI-H446, 16600 nM; in [7], 3500 nM; in data set [8] it was 490 nM. The 50% inhibitory concentration (IC50) is 140 nM in data set [9], < 3 nM in the data set on K562, < 3 nM in data set [10] and < 3 nM in the data set with PC-3.
In the case of `COc1ccc2[nH]c3c(c2c1)CCN1C(=O)c2cc(Cl)ccc2SC31` (centres undefined), the inhibition result in data set [5] and in data set [6] was “Active” throughout. The IC50 with A549 [3] was determined as 2300 nM; in the data set with HCT-116 [4] it was 2700 nM; in the data set on MDA-MB-435, 44100 nM.
As to `O=C1c2cc(F)ccc2SC2c3[nH]c4ccccc4c3CCN12` (centres undefined), the inhibition result in data set [5] and in data set [6] was “Active” in each case. The IC50 in the data set with A549 [3], in the data set with HCT-116 [4] and in the data set on MDA-MB-435 was > 200000 nM throughout.
As to `O=C1c2ccccc2S(=O)(=O)C2c3[nH]c4ccccc4c3CCN12` (centres undefined), the inhibition entry in data set [5] and in data set [6] was “Active” each time. Moreover, the IC50 with A549 [3], in the data set on HCT-116 [4] and in the data set on MDA-MB-435 was > 200000 nM in each case.
For `CC[C@@]1(O)C(=O)OCc2c1cc1n(c2=O)Cc2cc3ccccc3nc2-1` [CAMPTOTHECIN], the IC50 in the data set on A549 [3] was 100 nM; in the data set on HCT-116 [4], 90 nM; with MDA-MB-435 it was 1000 nM; in the data set with NCI-H446, > 200000 nM; in [7], 710 nM; in data set [8], 960 nM. Moreover, the half-inhibitory concentration (IC50) in [9] was < 3 nM; in the data set with K562, < 3 nM; in data set [10] it was 140 nM; with PC-3 it was 2500 nM.
Take `O=C1c2ccccc2OC2c3[nH]c4ccc(O)cc4c3CCN12` (centres undefined): the inhibition result in data set [1] was “Active”. In addition, in data set [2], the inhibition result was “inactive”. Further, the IC50 in the data set on A549 [3] is 4000 nM; with HCT-116 [4] it was 2300 nM; in the data set with MDA-MB-435, 1400 nM.
With `O=C1c2ccccc2S(=O)(=O)C2c3[nH]c4ccc(O)cc4c3CCN12` (centres undefined), the inhibition entry in data set [2] is “inactive”. Moreover, the IC50 with A549 [3] is > 200000 nM; in the data set on HCT-116 [4], 46000 nM; in the data set with MDA-MB-435 it was > 200000 nM.
For the molecule `Cc1ccc2c(c1)OC1c3[nH]c4ccc(O)cc4c3CCN1C2=O` (centres undefined), the “growth inhibition (GI)” value in the data set on A549 [12] is “Active”. Further, the Activity result in the data set with Mus musculus [13] and with Mus musculus [14] was “Non-toxic” throughout. Besides, the IC50 in the data set on A549 [3] was 6500 nM; in the data set with HCT-116 [4], < 3 nM; in the data set with MDA-MB-435 it was < 3 nM.
In the case of `O=C1c2cc(F)ccc2SC2c3[nH]c4ccc(O)cc4c3CCN12` (centres undefined), the inhibition result in data set [5] and in data set [6] was “Active” in each case. For the same molecule, the IC50 with A549 [3] is 1200 nM; in the data set with HCT-116 [4], < 3 nM; in the data set on MDA-MB-435, < 3 nM.
`O=C1c2ccccc2SC2c3[nH]c4ccccc4c3CCN12` (centres undefined): the inhibition result in [1], in data set [5] and in data set [6] was “Active” each time. Further, in data set [2], the inhibition entry is “inactive”.
Consider `COc1ccc2[nH]c3c(c2c1)CCN1C(=O)c2cc(F)ccc2SC31` (centres undefined), for which the inhibition entry in data set [5] and in data set [6] was “Active” each time. Further, the IC50 in the data set on A549 [3] turned out to be 1200 nM; in the data set with HCT-116 [4], 6500 nM; with MDA-MB-435 it was 3900 nM.
Take `O=C1c2cc(Cl)ccc2SC2c3[nH]c4ccccc4c3CCN12` (centres undefined): the inhibition entry in data set [5] and in data set [6] was “Active” in each case. The IC50 in the data set with A549 [3] was 2100 nM; in the data set with HCT-116 [4] it was 29100 nM; in the data set on MDA-MB-435, 38800 nM.
On to `COc1ccc2[nH]c3c(c2c1)CCN1C(=O)c2cc(Br)ccc2SC31` (centres undefined), for which the inhibition result in [5] and in data set [6] was “Active” each time. The IC50 with A549 [3] was 8200 nM; in the data set on HCT-116 [4] it was 2700 nM; with MDA-MB-435, 84700 nM.
`O=C1c2cc(O)ccc2OC2c3[nH]c4ccc(O)cc4c3CCN12` (centres undefined): the inhibition entry in data set [1] and in data set [2] was “Active” throughout. In addition, the “growth inhibition (GI)” value with HCT-116 [11] is “Active”. The IC50 in the data set on A549 [3] is 3800 nM; in the data set with HCT-116 [4], 1200 nM; with MDA-MB-435 it was 800 nM; with NCI-H446 it was > 200000 nM; in data set [7], 5150 nM; in [8], 1100 nM. In addition, the IC50 is 1200 nM in data set [9], < 3 nM in the data set on K562, 60 nM in data set [10] and 840 nM in the data set with PC-3.
Regarding `O=C1c2cccnc2SC2c3[nH]c4ccccc4c3CCN12` (centres undefined), the inhibition entry in [5] and in [6] was “Active” each time. The IC50 with A549 [3], in the data set on HCT-116 [4] and in the data set on MDA-MB-435 was > 200000 nM in each case.
On to `COc1ccc2c(c1)C(=O)N1CCc3c([nH]c4ccc(OC)cc34)C1S2` (centres undefined), for which the inhibition result in data set [5] and in data set [6] was “Active” throughout. Also, the IC50 was 11300 nM with A549 [3], 20000 nM in the data set with HCT-116 [4] and 122000 nM in the data set with MDA-MB-435.
As to `COc1ccc2[nH]c3c(c2c1)CCN1C(=O)c2ccccc2S(=O)(=O)C31` (centres undefined), the inhibition entry in data set [1], in data set [5], in [6] and in data set [2] was “Active” in each case. The IC50 in the data set on A549 [3], in the data set on HCT-116 [4] and in the data set with MDA-MB-435 was > 200000 nM each time.
